Data set [1] concerns Plasmodium falciparum. Put plainly: Hit confirmation in dose-response curve in NF54 pLDH assay, at 72h. In kind it is functional, organism-based, Erythrocyte. Set-up: timepoint 72 hour. The settings on record: Plasmodium falciparum, NF54, Erythrocyte, 72 h.
The subject of data set [2] is Plasmodium falciparum. The experiment in a line: Hit confirmation in dose-response curve in Dd2 pLDH assay, at 72h. The format is functional, organism-based, Erythrocyte. Set-up: timepoint 72 hour. The settings on record: Plasmodium falciparum, Dd2, Erythrocyte, 72 h.
The test system of data set [3] is Plasmodium falciparum. The experiment in a line: Hit confirmation in dose-response curve in NF54 nanoGlo assay, at 72h. Set-up: timepoint 72 hour. The settings on record: Plasmodium falciparum, NF54, Erythrocyte, 72 h. The format is functional, organism-based, Erythrocyte.
A short description of data set [4]: Hit confirmation in dose-response curve in HepG2 cytotoxicity assay, at 72h. In kind it is toxicity, cell-based, Homo sapiens. Set-up: timepoint 72 hour. The settings on record: human, HepG2 cells.
Data set [5] deals with Plasmodium falciparum. The experiment in a line: Hit confirmation in dose-response curve in NF54 nanoGlo assay, at 12h. In kind it is functional, organism-based, Erythrocyte. Set-up: timepoint 12 hour. The settings on record: Plasmodium falciparum, NF54, Erythrocyte, 12 h.

SMILES strings stand for the structures. Bounds are passed on as bounds.

As a reminder, the IC50 is the concentration needed to halve the response being measured. Low readings indicate greater potency, high ones weaker potency. For `Cc1cc(N2CCC(NCCCN3CCCc4ccccc43)CC2)nc(N)n1`, the IC50 with Plasmodium falciparum [1] was 3.63 µM; in the data set with Plasmodium falciparum [2], 3.72 µM; in the data set on Plasmodium falciparum [3], 3.09 µM; in the data set with Plasmodium falciparum [5], above 10 µM. For the same molecule, the IC50 at 72 h in data set [4] is above 10 µM.

On to `Cc1cc(O)c(Cl)cc1-c1ccc2nccc(N)c2c1`, for which the IC50 in the data set with Plasmodium falciparum [1] is 0.38 µM; in the data set with Plasmodium falciparum [2], 0.302 µM; in the data set with Plasmodium falciparum [3] it was 0.324 µM; in the data set with Plasmodium falciparum [5], above 10 µM. In data set [4], this molecule yielded an IC50 at 72 h above 10 µM.

For the molecule `C[C@H](Nc1nc(N)c2ccccc2n1)c1cccc(-n2cncn2)c1`, the IC50 was determined as 5.89 µM in the data set on Plasmodium falciparum [1], 4.17 µM in the data set on Plasmodium falciparum [2], 4.47 µM with Plasmodium falciparum [3] and 10.2 µM in the data set on Plasmodium falciparum [5]. Further, in data set [4], the IC50 at 72 h is above 10 µM.

On to `Cc1cc(NCCCN2CCC[C@H](O)C2)c2cc(F)ccc2n1`, for which the IC50 in the data set with Plasmodium falciparum [1] was 3.89 µM; in the data set with Plasmodium falciparum [2], 2.69 µM; in the data set on Plasmodium falciparum [3] it was 3.39 µM; with Plasmodium falciparum [5] it was 7.24 µM. In data set [4], this molecule yielded an IC50 at 72 h above 10 µM.

For `CN1C2CCC1CC(OC(=O)C1CCC(C(=O)OC3CC4CCC(C3)N4C)(c3ccccc3)c3ccccc31)C2` (stereo not given), the 50% inhibitory concentration (IC50) with Plasmodium falciparum [1] is 3.8 µM; in the data set with Plasmodium falciparum [2], 3.31 µM; in the data set on Plasmodium falciparum [3], 2.88 µM; with Plasmodium falciparum [5], 3.89 µM. The molecule further gave a half-maximal inhibitory concentration (IC50) at 72 h in data set [4] above 10 µM.

For `CCOc1cc2nccc(N3C[C@H]4CN(C)C[C@H]4C3)c2cc1OCC`, the IC50 was 0.562 µM in the data set on Plasmodium falciparum [1], 0.525 µM in the data set with Plasmodium falciparum [2], 0.575 µM in the data set with Plasmodium falciparum [3] and 0.933 µM in the data set with Plasmodium falciparum [5]. In data set [4], this molecule showed an IC50 at 72 h above 10 µM.

With `COC(=O)c1cn(CCNc2ccnc3cc(Cl)ccc23)cc2c(O)nnc1-2`, the IC50 is 1.29 µM in the data set on Plasmodium falciparum [1], 0.955 µM in the data set on Plasmodium falciparum [2], 0.603 µM in the data set with Plasmodium falciparum [3] and 3.09 µM with Plasmodium falciparum [5]. The concentration for half-maximal inhibition (IC50) at 72 h in data set [4] is above 10 µM.

`COC(CN(Cc1nc(N)nc(Nc2ccc(C)cc2)n1)Cc1nc(N)nc(Nc2ccc(C)cc2)n1)OC`: the half-inhibitory concentration (IC50) in the data set with Plasmodium falciparum [1] was 3.47 µM; in the data set with Plasmodium falciparum [2], 1.45 µM; in the data set on Plasmodium falciparum [3], 0.912 µM; in the data set with Plasmodium falciparum [5], above 10 µM. Besides, the IC50 at 72 h in data set [4] was above 10 µM.

Turning to `CN(CCCn1ccnc1)c1ccnc2cc(Br)ccc12`, the IC50 in the data set with Plasmodium falciparum [1] turned out to be 0.437 µM; in the data set with Plasmodium falciparum [2] it was 0.437 µM; with Plasmodium falciparum [3] it was 0.55 µM; with Plasmodium falciparum [5], 1.1 µM. In data set [4], the half-inhibitory concentration (IC50) at 72 h was above 10 µM.

Consider `Cc1nc(-c2ccccn2)nc(NC2CCN(CC(F)F)CC2)c1C`, for which the IC50 is 9.12 µM in the data set with Plasmodium falciparum [1], 6.46 µM in the data set with Plasmodium falciparum [2], 2.51 µM in the data set on Plasmodium falciparum [3] and above 10 µM in the data set with Plasmodium falciparum [5]. Also, the 50% inhibitory concentration (IC50) at 72 h in data set [4] was above 10 µM.

Turning to `COc1ccnc(NCCCc2nc(-c3ccncc3)cs2)n1`, the IC50 in the data set on Plasmodium falciparum [1] is 5.89 µM; with Plasmodium falciparum [2] it was 4.68 µM; in the data set on Plasmodium falciparum [3] it was 4.79 µM; in the data set with Plasmodium falciparum [5] it was above 10 µM. The molecule further registered a 50% inhibitory concentration (IC50) at 72 h in data set [4] above 10 µM.

Consider `Oc1ccc(OC(F)(F)F)cc1-c1ccc2nccn2n1`, for which the IC50 with Plasmodium falciparum [1] came out at 7.76 µM; with Plasmodium falciparum [2], 6.31 µM; in the data set on Plasmodium falciparum [3], 3.16 µM; in the data set on Plasmodium falciparum [5], 6.76 µM. In data set [4], this molecule displayed an IC50 at 72 h above 10 µM.

For the molecule `Cc1ccccc1CN1CCC(CNc2c3c(nc4ccccc24)CCC3)CC1`, the half-inhibitory concentration (IC50) was found to be 0.977 µM in the data set on Plasmodium falciparum [1], 0.741 µM in the data set on Plasmodium falciparum [2], 0.708 µM in the data set on Plasmodium falciparum [3] and 3.63 µM with Plasmodium falciparum [5]. Also, in data set [4], the midpoint of inhibition, the IC50 at 72 h, lay at 5.25 µM.

Take `Cc1ccn2cc(-c3ccc(N4CCC(NCc5cccnc5)CC4)cc3)nc2c1`: the half-maximal inhibitory concentration (IC50) is 5.25 µM in the data set with Plasmodium falciparum [1], 5.37 µM with Plasmodium falciparum [2], 3.72 µM with Plasmodium falciparum [3] and above 10 µM in the data set on Plasmodium falciparum [5]. For the same molecule, the half-maximal inhibitory concentration (IC50) at 72 h in data set [4] is above 10 µM.

For `CNc1nc(C)cc(N[C@@H]2COc3ccccc3C2)n1`, the concentration for half-maximal inhibition (IC50) in the data set with Plasmodium falciparum [1] is 5.25 µM; in the data set with Plasmodium falciparum [2] it was 3.8 µM; with Plasmodium falciparum [3], 3.39 µM; with Plasmodium falciparum [5], above 10 µM. In data set [4], this molecule registered an IC50 at 72 h above 10 µM.

In the case of `CN1CCN(CC2CCN(c3ccnc4ccccc34)CC2)CC1`, the 50% inhibitory concentration (IC50) with Plasmodium falciparum [1] was 1.35 µM; in the data set on Plasmodium falciparum [2], 1.2 µM; with Plasmodium falciparum [3], 1.35 µM; in the data set with Plasmodium falciparum [5] it was 1.91 µM. Further, the IC50 at 72 h in data set [4] is above 10 µM.

As to `Nc1cc(N2CCC(c3nc4cc(F)ccc4[nH]3)CC2)nc(N2CCOCC2)n1`, the IC50 is 8.32 µM in the data set on Plasmodium falciparum [1], above 10 µM in the data set with Plasmodium falciparum [2], 8.71 µM in the data set on Plasmodium falciparum [3] and above 10 µM with Plasmodium falciparum [5]. The IC50 at 72 h in data set [4] is above 10 µM.

As to `CCNc1cc(C)nc(NCCNC(=O)Nc2cc(F)cc(F)c2)n1`, the IC50 in the data set on Plasmodium falciparum [1] is 3.47 µM; in the data set with Plasmodium falciparum [2] it was 3.47 µM; in the data set with Plasmodium falciparum [3], 2.4 µM; in the data set with Plasmodium falciparum [5], above 10 µM. This molecule yielded an IC50 at 72 h in data set [4] above 10 µM.

As for `CN(c1ccccc1)c1ccc(CN2CCN([C@H]3CCNC3)CC2)cc1`, the IC50 is 9.33 µM with Plasmodium falciparum [1], 6.46 µM in the data set with Plasmodium falciparum [2], 4.17 µM with Plasmodium falciparum [3] and above 10 µM with Plasmodium falciparum [5]. Besides, the IC50 at 72 h in data set [4] is above 10 µM.

As to `COCCN1CC[C@H](CNC2CCN(c3ncc4ccc(F)cc4n3)CC2)C1`, the concentration for half-maximal inhibition (IC50) in the data set with Plasmodium falciparum [1] is 4.57 µM; with Plasmodium falciparum [2], 4.07 µM; in the data set on Plasmodium falciparum [3], 3.09 µM; in the data set on Plasmodium falciparum [5], 5.62 µM. The molecule also gave a 50% inhibitory concentration (IC50) at 72 h in data set [4] above 10 µM.

Turning to `Cc1ccc(-c2nnc(Nc3ccccc3)c3ccccc23)cc1CN1C(=O)c2ccccc2C1=O`, the IC50 with Plasmodium falciparum [1] was above 10 µM; in the data set with Plasmodium falciparum [2] it was 9.33 µM; in the data set with Plasmodium falciparum [3], 3.8 µM; with Plasmodium falciparum [5], above 10 µM. In data set [4], this molecule came in with an IC50 at 72 h above 10 µM.

With `O=C(NCc1ccc(N2CCNCC2)c(F)c1)c1ccc(-c2noc(C(F)(F)F)n2)cc1`, the IC50 turned out to be 2.57 µM in the data set with Plasmodium falciparum [1], 2.63 µM with Plasmodium falciparum [2], 2.63 µM in the data set with Plasmodium falciparum [3] and 6.61 µM in the data set on Plasmodium falciparum [5]. In addition, the 50% inhibitory concentration (IC50) at 72 h in data set [4] was above 10 µM.

Regarding `COc1ccc2nc(C)cc(NCc3cccc(NC(=O)c4ccco4)c3)c2c1`, the IC50 in the data set with Plasmodium falciparum [1] came out at 2.45 µM; in the data set with Plasmodium falciparum [2] it was 2.4 µM; with Plasmodium falciparum [3], 1.17 µM; in the data set on Plasmodium falciparum [5], 3.31 µM. Further, in data set [4], the IC50 at 72 h was above 10 µM.

On to `COc1ccc2[nH]cc(C3=CCN(c4ccc5nnc(-c6ccccc6F)n5n4)CC3)c2c1`, for which the IC50 in the data set on Plasmodium falciparum [1] is 8.71 µM; with Plasmodium falciparum [2], above 10 µM; with Plasmodium falciparum [3], 2.69 µM; in the data set with Plasmodium falciparum [5] it was above 10 µM. The IC50 at 72 h in data set [4] was above 10 µM.

Consider `Cc1sc2nc(-c3ccccn3)nc(NCCc3nccn3C)c2c1-c1ccccc1`, for which the IC50 in the data set on Plasmodium falciparum [1] came out at 8.71 µM; in the data set with Plasmodium falciparum [2], 3.55 µM; in the data set on Plasmodium falciparum [3], 3.24 µM; with Plasmodium falciparum [5], 8.91 µM. Further, half-maximal inhibition in data set [4] (IC50 at 72 h) required 8.32 µM.

For `c1ccc2c(Nc3ccc4[nH]cnc4c3)c3ccccc3nc2c1`, the IC50 with Plasmodium falciparum [1] worked out at 1.7 µM; in the data set with Plasmodium falciparum [2], 1.41 µM; with Plasmodium falciparum [3] it was 0.832 µM; in the data set with Plasmodium falciparum [5], 1.82 µM. Further, in data set [4], the IC50 at 72 h was above 10 µM.

As to `NCCCCc1c(-c2cccnc2)[nH]c2c(Cl)cc(Cl)cc12`, the IC50 was 4.47 µM in the data set on Plasmodium falciparum [1], 4.07 µM in the data set with Plasmodium falciparum [2], 4.47 µM with Plasmodium falciparum [3] and 6.92 µM in the data set with Plasmodium falciparum [5]. Half-maximal inhibition in data set [4] (IC50 at 72 h) was put at 9.55 µM.

With `COc1ccc2c(C)cc(NCCCN3CCC[C@H](C(N)=O)C3)nc2c1`, the IC50 worked out at 2.69 µM with Plasmodium falciparum [1], 3.02 µM in the data set on Plasmodium falciparum [2], 2.19 µM in the data set on Plasmodium falciparum [3] and 6.76 µM in the data set with Plasmodium falciparum [5]. Further, in data set [4], the half-maximal inhibitory concentration (IC50) at 72 h is above 10 µM.

Source of the values: ChEMBL document CHEMBL5308541, “MAIP: An Open-Source Tool to Enrich High-Throughput Screening Output and Identify Novel, Druglike Molecules with Antimalarial Activity” (ACS Med Chem Lett, 2023).
